Source: patent publication US12491202B2, “Phospholipid ether analogs for imaging and targeted treatment of pediatric solid tumors” (Wisconsin Alumni Research Foundation, priority 2016, dated 2025)

Experiments:
[1] = tested on: pediatric solid tumor cells; experiment: CLR1501 uptake by flow cytometry in pediatric solid tumor cell lines; assay type: cell-based, human; details: 5 μM, 16-19 hours incubation, 4 hours wash; Rd, Rh-41, TC-71, TC-106, SK-N-AS, NB-1691, SAOS-2, SJ-GBM2 p<0.01; CHLA-20, Rh-30 p≤0.02
Source text: (§1) FIG. 4 is a bar graph illustrating the preferential uptake of CLR1501, a fluorescent derivative of CLR1404, by pediatric solid cancer cells (rhabdomyosarcoma Rd, Rh-41; Ewing's sarcoma TC-71, TC-106; neuroblastoma SK-N-AS, NB1691; osteosarcoma SAOS-2; glioblastoma SJ-GBM2), and for reference, the adult cancer cell lines PC3 and MT-330, compared to normal human fibroblasts (HUFI), by flow cytometry. Mean±standard error (SE) from minimum 3 experiments per cell line, *P≤0.01. MFI, mean fluorescence intensity; RMS, rhabdomyosarcoma; EWS, Ewing's sarcoma; NB, neuroblastoma; OS, osteosarcoma; GB, glioblastoma, PC, prostate adenocarcinoma. Cells were plated at 5×10^5 cells/ml in triplicates in media containing 5 μM CLR1501 (fluorescent CLR1404). Mean fluorescence intensity corrected for auto-fluorescence was averaged from three experiments±standard deviation.
(§2) Each cell line (5×10^5 cells/ml) was incubated for 16-19 hours with 5 μM CLR1501, then washed with 10% FBS medium for 4 hours. Cells were then measured by flow cytometry (FACSCalibur, BD Biosciences) and analyzed using FlowJo 8.2 (Tree Star, Ashland, Oreg.). Mean fluorescence intensity (MFI) per cell was corrected for autofluorescence (FL1 index) and averaged from three experiments±standard deviation.

[2] = tested on: normal human pediatric fibroblast (HUFI) cells; experiment: CLR1501 uptake by flow cytometry in normal fibroblasts; assay type: cell-based; details: 5 μM, 16-19 hours incubation; compared with pediatric tumor cell lines
Source text: as §1, §2

[3] = tested on: xenografted pediatric solid tumor tissue (Rh30, TC-71, CHLA-20, NB-1691); experiment: In vivo uptake of 124I-CLR1404 by PET/CT in xenografted mice; design: species or system mouse; details: NSG mice, 8-13 μCi/g via tail vein injection
Method: Specifically, […] with one of four different pediatric tumor cell lines (CHLA-20 (neuroblastoma), NB-1691 (neuroblastoma), TC-71 (Ewing sarcoma), and Rh-30 (rhabdomyosarcoma). For each of the sixteen xenografted mice, 100 μl cell suspension containing 3×10^6 tumor cells (>95% viability, passage 5-25) was inoculated into subcutaneous tissue of the left flank of a 6-8 week-old NSG mouse (NOD.Cg-Prdc^scidII2rg^tm1Wj1/SzJ, Jackson Laboratory, Bar Harbor, Me.). Once xenograft tumors measured a minimum of about 7×7 mm, the mice received ^124I-CLR1404 at 8-13 μCi/g via tail vein injection. After an uptake period, PET/CT imaging was performed on the mice at 5 and 6 time-points. Following image acquisition, the images were reconstructed, co-registered, resampled, rescaled, and corrected for partial volume effects (PVE), and masked.

[4] = tested on: Rh30 rhabdomyosarcoma xenograft; experiment: Tumor growth rate, linear mixed effects model, Rh30 xenograft; assay type: in vivo, mouse; details: 3.5 μCi/g, excipient slope 0.18, P <0.0001
Method: (§3) Rh30, TC-71, TC-106, CHLA-20, NB-1691, and SAOS-2 subcutaneous flank xenografts were induced in mice, as described in Example 2 above. Tumors were measured twice weekly with calipers, and the tumor volume was calculated. When tumors reached a volume of approximately 50 mm^3, mice were randomly assigned to receive either ^131I-CLR1404 in doses of 3.5 μCi/g or an excipient (equimolar ^127I-CLR1404), and measurement of tumor size continued. Survival rates as a function of time were also observed in the xenografted mice.
(§4) A linear mixed effects analysis of predicted growth rate was performed using the tumor size data described above. The results are shown in Table 1 below, and in graphical form in FIG. 10.

[5] = tested on: TC-71 Ewing's sarcoma xenograft; experiment: Tumor growth rate, linear mixed effects model, TC-71 xenograft; assay type: in vivo, mouse; details: 3.5 μCi/g, excipient slope 0.14, P <0.0003
Method: as §3, §4

[6] = tested on: TC-106 Ewing's sarcoma xenograft; experiment: Tumor growth rate, linear mixed effects model, TC-106 xenograft; assay type: in vivo, mouse; details: 3.5 μCi/g, excipient slope 0.26, P <0.0001
Method: as §3, §4

[7] = tested on: CHLA-20 neuroblastoma xenograft; experiment: Tumor growth rate, linear mixed effects model, CHLA-20 xenograft; assay type: in vivo, mouse; details: 3.5 μCi/g, excipient slope 0.13, P 0.0124
Method: as §3, §4

[8] = tested on: NB-1691 neuroblastoma xenograft; experiment: Tumor growth rate, linear mixed effects model, NB-1691 xenograft; assay type: in vivo, mouse; details: 3.5 μCi/g, excipient slope 0.15, P <0.0001
Method: as §3, §4

[9] = tested on: SAOS-2 osteosarcoma xenograft; experiment: Tumor growth rate, linear mixed effects model, SAOS-2 xenograft; assay type: in vivo, mouse; details: 3.5 μCi/g, excipient slope 0.11, P <0.0001
Method: as §3, §4

[10] = tested on: pediatric solid cancer xenografts; experiment: Tumor volume, survival and toxicity in pediatric solid cancer xenograft NSG models; assay type: in vivo, mouse; details: 3.5 μCi/g
Method: as §3

## C[N+](C)(C)CCOP(=O)([O-])OCCCCCCCCCCCCCCCCCCc1ccc(C2=C3C=CC=[N+]3[B-](F)(F)n3cccc32)cc1 [CLR1501]
[1]
  CLR1501 uptake (mean fluorescence intensity) versus normal pediatric fibroblast (HUFI) cells: significantly higher
[2]
  CLR1501 uptake in normal cells: much less uptake

## C[N+](C)(C)CCOP(=O)([O-])OCCCCCCCCCCCCCCCCCCc1ccc([124I])cc1 [^124I-CLR1404]
[3]
  Uptake into xenografted tumor tissue (PET/CT): differential uptake

## C[N+](C)(C)CCOP(=O)([O-])OCCCCCCCCCCCCCCCCCCc1ccc([131I])cc1 [^131I-CLR1404]
[4]
  Slope log volume (prediction of the tumor growth rate): 0.06
[5]
  Slope log volume (prediction of the tumor growth rate): 0.08
[6]
  Slope log volume (prediction of the tumor growth rate): 0.10
[7]
  Slope log volume (prediction of the tumor growth rate): 0.09
[8]
  Slope log volume (prediction of the tumor growth rate): 0.09
[9]
  Slope log volume (prediction of the tumor growth rate): 0.08
[10]; xenografted mice
  Toxicity: low toxicity
[10]; Rh30, TC-71, CHLA-20 and NB-1691 xenografts
  Mean tumor volumes versus excipient: decreased mean tumor volumes
[10]; four groups, statistically significant in Ewing's sarcoma and rhabdomyosarcoma xenografts
  Animal survival versus excipient: extended animal survival
